Test results from article PMC11013139, “Identification of Corn Peptides with Alcohol Dehydrogenase Activating Activity Absorbed by Caco-2 Cell Monolayers” (Molecules, 2024).
Where no end group is shown, it is not given here.

Columns and labels:
ADH = target: T1, ADH (Saccharomyces cerevisiae, UniProt P00330); experiment: ADH activation activity in vitro (improved assay kit method); format: biochemical; conditions: synthetic peptides; ADH 0.2 U/mL, NAD+ and ethanol, 37 °C, absorbance 340 nm every 10 s for 10 min; mean ± SD of three parallel experiments
T1 sequence (P00330 1-348): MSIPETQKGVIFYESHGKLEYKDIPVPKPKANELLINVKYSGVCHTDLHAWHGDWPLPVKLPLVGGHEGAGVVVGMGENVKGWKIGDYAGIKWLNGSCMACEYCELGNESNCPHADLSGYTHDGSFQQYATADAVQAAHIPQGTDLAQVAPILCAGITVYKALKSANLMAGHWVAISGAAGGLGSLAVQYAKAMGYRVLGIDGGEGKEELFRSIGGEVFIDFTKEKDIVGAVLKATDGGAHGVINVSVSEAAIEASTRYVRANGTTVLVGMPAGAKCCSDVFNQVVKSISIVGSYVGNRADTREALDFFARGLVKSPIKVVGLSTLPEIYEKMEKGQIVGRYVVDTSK
Experimental: The ADH activation activity in vitro was detected using an improved assay kit method. The specific steps are as follows: 50 μL of the sample solution was mixed with 150 μL of the assay reagent (including buffer, NAD^+, and ethanol); after equilibrating at 37 °C for 5 min, 50 μL of ADH (0.2 U/mL) was added to initiate the reaction. The absorbance at 340 nm was measured using a Varioskan Flash (Thermo Fisher Scientific, Waltham, MA, USA) full-wavelength scanning multimode reader, with readings taken every 10 s for 10 min. Distilled water was used as a negative control in place of the sample. The reaction kinetics curve was fitted, and the first derivative of the curve at 0 min was calculated as the initial reaction rate. The initial reaction rate of the sample was recorded as Vs, while that of the negative control was recorded as V0. The ADH activation rate of the sample can be calculated using the following equation:(1) ADH activation activity %=VS−V0/V0×100

ADH enzyme = conditions: cited from earlier work
Source text: The results of molecular docking were visualized by selecting three peptides with the lowest binding energy, as depicted in Figure 5. Three peptides successfully docked onto the hydrophobic cavity near the ADH active site, primarily binding to ADH through hydrogen bonds and hydrophobic interactions. Twelve hydrogen bonds were formed between SSNCQPF and ADH residues (His 44, Gly 181, Leu 182, Gly 183, Val 245, Ser 246, Val 247, Met 270, Glu 333, Gly 339, Arg 340). Ten hydrogen bonds were formed between QPQQP ...

Row | Substance | EC50 (ADH) [mM] | binding energy between peptide KPC and ADH enzyme (ADH enzyme) [kcal/mol]
1 | TGCPVLQ [TGCPVLQ] | 2.26 ± 0.16 | 
2 | QPQQPW [QPQQPW] | 2.73 ± 0.13 | 
3 | Lys-Pro-Cys [KPC, Chicken-derived tripeptide KPC (Lys-Pro-Cys)] |  | -6.6
4 | SSNCQPF [SSNCQPF] | 1.35 ± 0.22 | 
